Laboratory results as given in patent US20160289186A1, “FLUOROMETHYL-SUBSTITUTED PYRROLE CA[…]” (Grunenthal GmbH, priority 2013, published 2016).

molecular target: T1, Human CaV2.2 channels (Homo sapiens, UniProt Q00975); assay: Fluorescent (FLIPR) assay for CaV2.2 channels using potassium depolarization to induce channel opening; type: cell-based; details: 3 μM compound; 30 mM KCl assay buffer (inactivated channel state); HEK293 cells stably expressing human CaV2.2; read-out: Activity Category: %-Inhib (CaV2.2) @3 μM @30 mM KCl
T1 construct: expressed in transfected cells; host or cells: HEK293
In short: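 HEK293 cells stably co-expressing human CaV2.2 with α2δ and β subunits plus Kir2.3, Fluo-4 loaded; compounds preincubated 15 min at 25 °C in 1 mM or 30 mM KCl buffer (inactivated state), pH 7.4. Depolarized by KCl addition; baseline-normalized peak fluorescence (ex 480/em 535 nm) gave inhibition.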

T1 sequence (Q00975 whole entry): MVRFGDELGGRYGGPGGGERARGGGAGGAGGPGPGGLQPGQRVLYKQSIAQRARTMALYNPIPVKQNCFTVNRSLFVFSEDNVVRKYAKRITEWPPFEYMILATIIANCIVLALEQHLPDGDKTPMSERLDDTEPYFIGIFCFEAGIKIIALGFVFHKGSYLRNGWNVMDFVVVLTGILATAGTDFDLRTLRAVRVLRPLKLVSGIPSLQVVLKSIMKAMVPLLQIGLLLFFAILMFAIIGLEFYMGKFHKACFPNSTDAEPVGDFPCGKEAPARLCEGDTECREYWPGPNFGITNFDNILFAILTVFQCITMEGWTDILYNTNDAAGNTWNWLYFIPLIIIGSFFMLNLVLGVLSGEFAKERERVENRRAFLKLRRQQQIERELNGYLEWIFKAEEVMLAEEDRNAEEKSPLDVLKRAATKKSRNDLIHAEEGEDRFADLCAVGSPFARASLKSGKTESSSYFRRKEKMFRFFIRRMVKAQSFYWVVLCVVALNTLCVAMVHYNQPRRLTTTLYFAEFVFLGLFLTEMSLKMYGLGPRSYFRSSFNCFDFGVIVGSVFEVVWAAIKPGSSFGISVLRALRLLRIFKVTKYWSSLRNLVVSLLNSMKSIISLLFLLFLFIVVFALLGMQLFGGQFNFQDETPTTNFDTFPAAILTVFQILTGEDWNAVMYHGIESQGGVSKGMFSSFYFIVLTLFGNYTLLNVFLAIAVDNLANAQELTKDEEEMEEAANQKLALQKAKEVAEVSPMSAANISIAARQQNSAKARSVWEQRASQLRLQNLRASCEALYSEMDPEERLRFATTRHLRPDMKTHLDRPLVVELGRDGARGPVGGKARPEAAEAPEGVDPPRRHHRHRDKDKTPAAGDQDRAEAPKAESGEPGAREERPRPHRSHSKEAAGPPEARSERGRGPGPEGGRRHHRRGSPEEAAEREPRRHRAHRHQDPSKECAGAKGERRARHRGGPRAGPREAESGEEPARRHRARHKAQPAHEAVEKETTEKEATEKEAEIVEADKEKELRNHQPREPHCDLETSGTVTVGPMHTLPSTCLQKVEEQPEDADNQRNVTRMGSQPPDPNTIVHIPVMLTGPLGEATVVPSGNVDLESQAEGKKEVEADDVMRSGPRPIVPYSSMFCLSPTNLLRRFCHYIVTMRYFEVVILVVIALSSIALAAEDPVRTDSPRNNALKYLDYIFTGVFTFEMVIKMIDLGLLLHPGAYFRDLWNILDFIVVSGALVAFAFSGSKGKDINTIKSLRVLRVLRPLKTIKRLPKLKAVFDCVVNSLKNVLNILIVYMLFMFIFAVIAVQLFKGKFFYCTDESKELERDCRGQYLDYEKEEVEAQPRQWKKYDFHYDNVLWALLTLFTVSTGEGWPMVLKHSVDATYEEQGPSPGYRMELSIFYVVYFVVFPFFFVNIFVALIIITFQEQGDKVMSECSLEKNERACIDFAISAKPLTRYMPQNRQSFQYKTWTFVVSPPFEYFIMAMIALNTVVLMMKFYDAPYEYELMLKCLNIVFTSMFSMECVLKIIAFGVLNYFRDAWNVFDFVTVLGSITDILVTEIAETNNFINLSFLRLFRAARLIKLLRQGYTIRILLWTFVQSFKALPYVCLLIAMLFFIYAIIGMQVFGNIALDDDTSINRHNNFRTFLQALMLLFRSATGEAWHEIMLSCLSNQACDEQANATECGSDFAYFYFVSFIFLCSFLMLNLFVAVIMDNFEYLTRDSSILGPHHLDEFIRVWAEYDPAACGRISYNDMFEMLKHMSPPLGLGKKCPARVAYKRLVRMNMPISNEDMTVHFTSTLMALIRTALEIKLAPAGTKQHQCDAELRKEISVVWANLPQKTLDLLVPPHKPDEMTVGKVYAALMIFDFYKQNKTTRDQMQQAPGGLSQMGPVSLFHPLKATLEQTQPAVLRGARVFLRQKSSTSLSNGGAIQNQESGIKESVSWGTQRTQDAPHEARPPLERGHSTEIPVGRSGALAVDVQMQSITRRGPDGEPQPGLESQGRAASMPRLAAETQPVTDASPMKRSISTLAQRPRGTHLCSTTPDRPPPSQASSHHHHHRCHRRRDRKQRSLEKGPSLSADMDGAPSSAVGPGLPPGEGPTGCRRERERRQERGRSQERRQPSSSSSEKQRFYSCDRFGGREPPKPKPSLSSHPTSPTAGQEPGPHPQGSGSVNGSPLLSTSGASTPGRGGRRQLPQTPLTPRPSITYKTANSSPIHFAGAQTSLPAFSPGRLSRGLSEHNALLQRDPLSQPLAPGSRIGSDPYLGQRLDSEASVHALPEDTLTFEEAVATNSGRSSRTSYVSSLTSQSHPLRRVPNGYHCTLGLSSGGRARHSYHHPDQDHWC
T1 sequence (P54284 whole entry, further chain): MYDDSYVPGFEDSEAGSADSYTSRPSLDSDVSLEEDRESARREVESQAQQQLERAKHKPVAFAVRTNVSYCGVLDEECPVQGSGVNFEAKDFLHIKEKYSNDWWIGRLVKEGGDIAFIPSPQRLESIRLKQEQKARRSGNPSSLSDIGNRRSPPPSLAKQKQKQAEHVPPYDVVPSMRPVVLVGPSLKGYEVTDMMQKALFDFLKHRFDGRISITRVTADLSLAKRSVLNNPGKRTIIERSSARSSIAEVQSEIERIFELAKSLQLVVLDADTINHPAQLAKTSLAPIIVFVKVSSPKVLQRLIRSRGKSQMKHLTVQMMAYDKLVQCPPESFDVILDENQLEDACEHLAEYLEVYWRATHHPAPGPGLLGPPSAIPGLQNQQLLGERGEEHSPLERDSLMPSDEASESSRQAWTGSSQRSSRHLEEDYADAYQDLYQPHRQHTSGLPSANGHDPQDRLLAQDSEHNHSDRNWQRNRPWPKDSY
T1 sequence (P54289 25-1103, further chain): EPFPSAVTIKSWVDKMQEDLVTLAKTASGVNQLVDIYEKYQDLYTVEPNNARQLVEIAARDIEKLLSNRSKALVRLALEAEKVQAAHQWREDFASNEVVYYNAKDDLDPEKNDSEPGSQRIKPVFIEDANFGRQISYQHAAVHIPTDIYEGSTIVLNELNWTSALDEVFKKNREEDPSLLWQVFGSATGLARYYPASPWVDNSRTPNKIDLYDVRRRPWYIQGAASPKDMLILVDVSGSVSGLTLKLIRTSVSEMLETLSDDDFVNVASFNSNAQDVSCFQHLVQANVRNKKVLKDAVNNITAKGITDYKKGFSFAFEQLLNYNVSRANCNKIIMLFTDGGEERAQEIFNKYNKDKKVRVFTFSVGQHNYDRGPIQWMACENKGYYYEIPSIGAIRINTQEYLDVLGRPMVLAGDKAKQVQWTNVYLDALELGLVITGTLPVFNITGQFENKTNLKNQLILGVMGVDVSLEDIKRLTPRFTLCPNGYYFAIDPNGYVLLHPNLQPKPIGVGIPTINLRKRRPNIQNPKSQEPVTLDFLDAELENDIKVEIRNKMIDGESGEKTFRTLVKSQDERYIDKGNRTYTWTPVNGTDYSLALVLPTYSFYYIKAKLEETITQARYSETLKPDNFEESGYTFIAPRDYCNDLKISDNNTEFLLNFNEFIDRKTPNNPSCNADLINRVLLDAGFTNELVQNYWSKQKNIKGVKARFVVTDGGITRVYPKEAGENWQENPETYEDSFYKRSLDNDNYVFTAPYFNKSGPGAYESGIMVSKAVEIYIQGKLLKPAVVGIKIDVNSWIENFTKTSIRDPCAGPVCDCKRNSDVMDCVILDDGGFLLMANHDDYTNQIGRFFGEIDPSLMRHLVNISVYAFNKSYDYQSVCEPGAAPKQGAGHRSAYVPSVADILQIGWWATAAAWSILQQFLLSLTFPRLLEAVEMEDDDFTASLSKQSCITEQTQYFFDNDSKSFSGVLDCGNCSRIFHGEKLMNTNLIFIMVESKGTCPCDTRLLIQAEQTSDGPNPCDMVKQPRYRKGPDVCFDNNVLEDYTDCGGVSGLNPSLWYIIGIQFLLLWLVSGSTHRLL

Question: With `Cc1c(-c2ccc(Cl)cc2F)c(C(=O)N2CCOC(C)(C)C2)n(C2CC2)c1C(F)(F)F` [Example 033, [3-(4-Chloro-2-fluoro-phenyl)-1-cyclopropyl-4-methyl-5-(trifluoromethyl)-1H-pyrrol-2-yl]-(2,2-dimethyl-morpholin-4-yl)-methanone] as the molecule, how does the inhibition at 3 µM read?
Answer: 75 to 95%

Question: With `CC(C)Cn1c(C(F)(F)F)cc(-c2ccc(F)cc2)c1C(=O)N1CCOC(C)(C)C1` [Example 045, (2,2-Dimethyl-morpholin-4-yl)-[3-(4-fluorophenyl)-1-(2-methyl-propyl)-5-(trifluoromethyl)-1H-pyrrol-2-yl]-methanone] as the molecule, how does the inhibition at 3 µM read?
Answer: 75 to 95%

Question: How did the inhibition at 3 µM turn out when `CN(CC(C)(C)CO)C(=O)c1c(-c2ccc(F)cc2)cc(C(F)(F)F)n1CC1CCCO1` (stereo not drawn) [Example 074, 3-(4-Fluorophenyl)-N-(3-hydroxy-2,2-dimethyl-propyl)-N-methyl-1-(tetrahydro-furan-2-yl-methyl)-5-(trifluoromethyl)-1H-pyrrole-2-carboxylic acid amide] was run?
Answer: 75 to 95%

Question: With `Cc1cnc(CN(C)C(=O)c2c(-c3ccc(Cl)cc3)c(C)c(C(F)(F)F)n2CC(C)C)cn1` [Example 059, 3-(4-Chlorophenyl)-N,4-dimethyl-1-(2-methyl-propyl)-N-[(5-methyl-pyrazin-2-yl)-methyl]-5-(trifluoromethyl)-1H-pyrrole-2-carboxylic acid amide] as the molecule, how does the inhibition at 3 µM read?
Answer: > 95%

Question: With `Cc1c(-c2ccc(Cl)cn2)c(C(=O)N2CCOC(C)(C)C2)n(C(C)C)c1C(F)(F)F` [Example 112, [3-(5-Chloro-pyridin-2-yl)-1-isopropyl-4-methyl-5-(trifluoromethyl)-1H-pyrrol-2-yl]-(2,2-dimethyl-morpholin-4-yl)-methanone] as the molecule, how does the inhibition at 3 µM read?
Answer: 40 to 75%

Question: `CN(CC(C)(C)CN1CCOCC1)C(=O)c1c(-c2ccc(Cl)cc2)cc(C(F)(F)F)n1C1CC1` [Example 017, 3-(4-Chlorophenyl)-1-cyclopropyl-N-(2,2-dimethyl-3-morpholin-4-yl-propyl)-N-methyl-5-(trifluoromethyl)-1H-pyrrole-2-carboxylic acid amide] was tested. Which inhibition at 3 µM did it give?
Answer: 75 to 95%

Question: With `Cc1c(-c2ccc(Cl)cc2)c(C(=O)N(C)CCS(C)(=O)=O)n(C2CC2)c1C(F)(F)F` [Example 041, 3-(4-Chlorophenyl)-1-cyclopropyl-N,4-dimethyl-N-(2-methylsulfonyl-ethyl)-5-(trifluoromethyl)-1H-pyrrole-2-carboxylic acid amide] as the molecule, how does the inhibition at 3 µM read?
Answer: 75 to 95%

Question: For `Cc1c(-c2ccc(Cl)cc2)c(C(=O)N(C)CCS(C)(=O)=O)n(CC2(O)CCCC2)c1C(F)(F)F` [Example 094, 3-(4-Chlorophenyl)-1-[(1-hydroxy-cyclopentyl)-methyl]-N,4-dimethyl-N-(2-methylsulfonyl-ethyl)-5-(trifluoromethyl)-1H-pyrrole-2-carboxylic acid amide], which inhibition at 3 µM is on record?
Answer: > 95%

Question: How did the inhibition at 3 µM turn out when `Cc1c(-c2ccc(Cl)cc2)c(C(=O)N(C)C(CO)CC(C)C)n(C(C)C)c1C(F)(F)F` (stereo not drawn) [Example 132, 3-(4-Chlorophenyl)-N-[1-(hydroxymethyl)-3-methyl-butyl]-1-isopropyl-N,4-dimethyl-5-(trifluoromethyl)-1H-pyrrole-2-carboxylic acid amide] was run?
Answer: 40 to 75%

Question: How did the inhibition at 3 µM turn out when `Cc1c(-c2ccc(Cl)cc2)c(C(=O)N(Cc2ccccc2)CC(C)(C)C)n(C)c1C(F)(F)F` [Example 003, N-Benzyl-3-(4-chlorophenyl)-N-(2,2-dimethyl-propyl)-1,4-dimethyl-5-(trifluoromethyl)-1H-pyrrole-2-carboxylic acid amide] was run?
Answer: 40 to 75%

Question: How did the inhibition at 3 µM turn out when `Cc1cc(CN(C)C(=O)c2c(-c3ccc(Cl)cc3)c(C)c(C(F)(F)F)n2CC(C)C)no1` [Example 057, 3-(4-Chlorophenyl)-N,4-dimethyl-N-[(5-methyl-isoxazol-3-yl)-methyl]-1-(2-methyl-propyl)-5-(trifluoromethyl)-1H-pyrrole-2-carboxylic acid amide] was run?
Answer: > 95%

Question: How did the inhibition at 3 µM turn out when `CN(CC(C)(C)C)C(=O)c1c(-c2ccc(Cl)cc2)cc(C(F)(F)F)n1CC1(O)CCCC1` [Example 090, 3-(4-Chlorophenyl)-N-(2,2-dimethyl-propyl)-1-[(1-hydroxy-cyclopentyl)-methyl]-N-methyl-5-(trifluoromethyl)-1H-pyrrole-2-carboxylic acid amide] was run?
Answer: 75 to 95%
